Reference: US20100093861A1, “TREATMENT OF INSULIN RESISTANCE OR DISEASES ASSOCIATED WITH INSULIN RESISTANCE” (Stevia ApS, priority 2006, published 2010)

Experiments:
Pax6 = assay: Affymetrix gene chip analysis of KKAy islets: Pax6; type: in vivo, mice; conditions: ISV vs. KKAy control islets, 9 weeks
Protocol: cRNA preparation and in vitro transcription: In total 6 Affymetrix arrays MOE430 2.0 probe array cartridge were used i.e. for analysis of 3 replicas for the KKAy control group and the ISV group, respectively. Each of the 6 samples consisted of pooled RNA from 3-4 KKAy mice. Preparation of target for hybridization was prepared from 340 ng of total RNA using MessageAmp™ II aRNA Amplification Kits (Ambion), according to the manufacturers instructions. Arrays were hybridised and scanned as described elsewhere (Kruhoffer et al., 2005).

Beta2/neuroD = assay: Relative real time RT-PCR in islets of KKAy mice (Example 3): Beta2/neuroD; type: in vivo; conditions: 9 weeks, normalized to 18S rRNA
Protocol: Islets were isolated by the collagenase digestion technique. In brief, the animals were anesthetized with pentobarbital (50 mg/kg intraperitoneally) and midline laparotomy was performed. The pancreas was retrogradely filled with 3 mL ice-cold Hanks balanced salt solution (([HBSS] Sigma Chemical, St Louis, Mo.) supplemented with 0.3 mg/ml collagenase Boehringer Mannheim GmbH, Germany). The pancreas was subsequently removed and incubated for 19 minutes at 37° C. After rinsing in HBSS, the islets were handpicked under a stereomicroscope and immediately transferred to a tubes containing 1 ml Trizol (Gibco/Invitrogene, Calsbad, Calif., USA). The islets isolated from the NMRI mice were incubated overnight at 37° C. and 95% normal atmosphere/5% CO2 in 10 ml RPMI 1640 containing 11.1 mmol/L glucose supplemented with penicillin G and 100 μg/mL streptomycin (all Gibco/Invitrogene, Calsbad, Calif., USA).
For each group, islets from 3-4 mice (180-200 islets) were pooled in 1 ml Trizol reagent (Gibco/lnvitrogene, Calsbad, Calif., USA) before RNA purification. Total RNA was extracted according to the manufactures' instructions. RNA was quantified by measuring absorbance at 260 and 280 nm. The quality of the RNA was checked by the Agilent 2100 bioanalyzer (Agilent, Santa Clara, USA). […]

KKAy-mice = assay: In vivo study of plasma insulin, glucose, triglycerides and body weight in KKAy-mice after isosteviol (Example 3)
Protocol: Twenty six male KKAy-mice (Clea Japan, Tokyo, Japan), all 5 week-old, weighing 22-25 g were randomized to 2 groups and treated for 9 weeks with; • A: standard chow diet (control); • B: standard chow diet+20 mg/kg BW of Isosteviol (hereinafter ISV).
The composition of the standard chow diet dry matter was: Protein 24%, carbohydrate 71%, and Lipids 5%. ISV (ent-16-ketobeyeran-19-oic acid; Wako Pure Chemical Industries, Osaka, Japan) was incorporated in the mice food pellet and administered orally.
Hormones and lipids were measured from blood sample at start and end of the treatment period. Blood sample was taken from the tail of the animals on chilled tubes containing heparin/aprotinin and centrifuged (4000 g, 60 seconds, […]), and plasma was frozen for subsequent analysis of insulin, glucose and triglycerides. Fasting blood glucose, as well as BW, was measured before and after intervention.
Plasma blood glucose was determined using the glucose oxidase method (GOD-PAP,
Boehringer Mannheim, GmbH Germany). Insulin was determined by radioimmunoassay with a guinea pig antiporcine insulin antibody (PNILGP4, Novo Nordisk, Bagsvaerd, Denmark), and mono-[125I]-(Tyr A14) labelled human insulin (Novo Nordisk) as tracer and rat insulin (Novo Nordisk) as standard. We separated free and bound radioactivity using ethanol (Heding, 1972). Interassay and intra-assay variation was below 10%. […] Triglycerides was determined using colorimetric kits (Roche Diagnostics, Boehringer Mannheim, GmbH Germany). The fasting glucose-insulin index was calculated as the product of plasma insulin and plasma glucose ([plasma insulin ng/ml]×[plasma glucose mmol/l]/1000) and compared between groups as relative units (Chang et al., 2005).

[1] = ISV group of KKAy mice, age 5 weeks, before treatment
[2] = KKAy mice, 20 mg/kg BW in diet, after 9-week treatment

C[C@@]12CC[C@@H]3[C@@](CC[C@H]4[C@@]3(C)CCC[C@@]4(C)C(=O)O)(CC1=O)C2 (single isomer, unassigned; ent-16) [ISV, ent-16-ketobeyeran-19-oic acid]
array: increased expression in Pax6 (Pax6): 1.9 fold
increased expression of Beta2/neuroD, ISV group vs. control group (Beta2/neuroD): 60%
reduction of plasma insulin increase compared to the KKAy control (KKAy-mice; 9 weeks treatment): 62%
reduction of the plasma TG increase in the KKAy (KKAy-mice; 9 weeks treatment): 74%
glucose-insulin index at start of study (KKAy-mice; ISV group of KKAy mice before treatment, product of plasma insulin and plasma glucose): 8.6 unit
plasma glucose at start of study (KKAy-mice; [1]): 8.9 mmol/L
plasma insulin at start of study (KKAy-mice; [1]): 1.0 ng/mL
plasma TG level at age 5 week (KKAy-mice; ISV group of KKAy mice, before treatment): 1.25 mmol/L
reduction in plasma glucose compared to the increase for the KKAy (KKAy-mice; KKAy at 5 weeks as baseline, 9 weeks treatment): 59%
plasma TG level at age 14 weeks (KKAy-mice; KKAy mice after 9 weeks treatment): 2.02 mmol/L
glucose-insulin index at the end of the study (KKAy-mice; KKAy mice after 9 weeks treatment, product of plasma insulin and plasma glucose): 1596 unit
plasma glucose at the end of the study (KKAy-mice; [2]): 16.2 mmol/L
plasma insulin at the end of the study (KKAy-mice; [2]): 80.9 ng/mL
fold increase of plasma glucose during study period (KKAy-mice; KKAy mice, 20 mg/kg BW, 9 weeks, KKAy control 2.8 fold): 1.8 fold
fold increase of plasma insulin during study period (KKAy-mice; KKAy mice, 20 mg/kg BW, 9 weeks, KKAy control 266 fold): 81 fold
increase of TG level at age 14 weeks compared to age 5 week (KKAy-mice; KKAy mice, 9 weeks treatment, KKAy control 192%): 62%
reduction in weight at the end of the 9 week treatment period (KKAy-mice; KKAy mice, vs. KKAy control): 13%
body weight after 5 weeks (KKAy-mice; KKAy mice, KKAy control 38.6 g): 29.9 g
body weight after 9 weeks treatment (KKAy-mice; KKAy mice, KKAy control 41.6 g): 36.3 g
